According to US20240208997A1, “CYCLIC BENZIMIDAZOLE DERIVATIVES AS CGAS INHIBITORS” (Boehringer Ingelheim International GmbH, priority 2022, published 2024):
Read-outs that look alike come from different tables or passages of the source.

Columns and labels:
[1] = tested on: IFN induction in virus-stimulated THP1 cells; settings: Table 4; compounds of PCT/EP2022/062480 and PCT/EP2022/062496 and their methyl ester prodrugs; read-out: THP1(vir) IC50; cited from earlier work
[2] = tested on: IFN induction in cGAMP-stimulated THP1 cells; settings: Table 4; compounds of PCT/EP2022/062480 and PCT/EP2022/062496 and their methyl ester prodrugs; cited from earlier work
[3] = tested on: IFN induction in dsDNA-stimulated human whole blood; settings: Table 4; compounds of PCT/EP2022/062480 and PCT/EP2022/062496 and their methyl ester prodrugs; read-out: hWB IC50; cited from earlier work
[4] = target: T1, cGAS (Homo sapiens, UniProt Q8N884); design: HumancGAS (amino acid 1-522) with an N-terminal 6×-His-tag and SUMO-tag; 6xHis (N); SUMO (N); made in house; host or cells: E. coli BL21(DE3) pLysS; settings: Table 4; compounds of PCT/EP2022/062480 and PCT/EP2022/062496 and their methyl ester prodrugs; read-out: hcGAS IC50; cited from earlier work
T1 sequence (Q8N884 whole entry): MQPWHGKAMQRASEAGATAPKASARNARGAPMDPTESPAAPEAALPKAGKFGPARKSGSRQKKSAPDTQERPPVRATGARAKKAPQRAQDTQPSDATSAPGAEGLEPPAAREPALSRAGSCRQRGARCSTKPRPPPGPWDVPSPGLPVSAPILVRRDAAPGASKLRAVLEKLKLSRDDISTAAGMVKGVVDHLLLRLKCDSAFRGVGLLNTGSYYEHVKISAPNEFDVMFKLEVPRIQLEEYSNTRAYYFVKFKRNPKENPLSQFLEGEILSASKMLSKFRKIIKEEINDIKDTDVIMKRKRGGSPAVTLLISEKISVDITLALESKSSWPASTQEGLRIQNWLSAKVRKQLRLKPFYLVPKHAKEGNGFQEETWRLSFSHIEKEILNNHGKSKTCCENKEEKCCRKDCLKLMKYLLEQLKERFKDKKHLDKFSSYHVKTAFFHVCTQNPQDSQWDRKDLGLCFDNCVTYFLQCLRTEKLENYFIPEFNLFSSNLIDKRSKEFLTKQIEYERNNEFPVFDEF

[5] = tested on: IFN induction in virus-stimulated THP1 cells; assay: Human cGAS cell assay, virus-stimulated THP1-Dual cells (THP1(vir) IC50); format: cell-based
Description: (§1) 6.2 Method: Human cGAS Cell Assay and cGAMP Stimulated Counter Cell Assay (THP1(vir) IC50 and THP1(cGAMP) IC50)
THP1-Dual™ cells (InvivoGen #thpd-nfis) expressing IRF dependent Lucia luciferase reporter were used as basis for both assays. For the detection of cellular cGAS activity cells were stimulated by a baculovirus (pFastbac-1, Invitrogen, no coding insert) infection that delivers the cGAS enzyme stimulating double-stranded DNA (measurement of THP1(vir) IC50).
(§2) Pathway activity was monitored by measuring the Lucia luciferase activity induced by either DNA stimulated cGAS enzyme activity (measurement of THP1(vir) IC50) or by cGAMP directly (measurement of THP1(cGAMP) IC50, counter assay).
(§3) Compounds were delivered in 10 mM DMSO solution, serially diluted and transferred to the 384 well assay plate (Greiner #781201) using an Echo acoustic dispenser. Typically, 8 concentrations were used with the highest concentration at 10 μM in the final assay volume followed by ^˜1:5 dilution steps. DMSO concentration was set to 1% in the final assay volume. The 384 well assay plate contained […] (column 1-22), and DMSO in column 23 and 24.
(§4) Cells, cultivated according to manufacturer conditions, were harvested by centrifugation at 300 g/10 min and were then resuspended and diluted to 1.66E5 cells/ml in fresh cell culture medium (RPMI 1640 (Gibco #A10491-01), 10% FCS (Gibco #10500), 1× GlutaMax (Gibco #35050-061), 1× Pen/Strep solution (Gibco #15140-122), 100 μg/ml Normocin (InvivoGen #ant-nr), 100 μg/ml Zeocin (InvivoGen #ant-zn), 10 μg/ml Blasticidin S (Life Technologies #A11139-03)). The baculovirus solution was then added 1:200 (have varied according to virus batch) to the cells (measurement of THP1(vir) IC50).
(§5) 30 μL of the cell/virus-mix were added to each well of the compound plate from column 1-23 via MultiDrop Combi dispenser (5000 cells/well). In column 24, 30 μl/5000 cells/well without virus were added as a low control.
(§6) The plates were then incubated for 18 h at 37° C. in a humidified incubator.
(§7) Following that, 15 μL of QuantiLuc detection reagent (InvivoGen #rep-qlcg5) were added to each well using a MultiDrop Combi. Measurement was done immediately after the addition using an EnVision reader (US-luminescence read-mode).
(§8) Data Evaluation and Calculation:
(§9) For data evaluation and calculation, the measurement of the low control was set as 0% control and the measurement of the high control was set as 100% control. The IC50 values were calculated using the standard 4 parameter logistic regression formula. Calculation: [y=(a−d)/(1+(x/c)^b)+d], a=low value, d=high value; x=conc M; c=IC50 M; b=slope

[6] = tested on: IFN induction in cGAMP-stimulated THP1 cells; assay: cGAMP stimulated counter cell assay in THP1-Dual cells (THP1(cGAMP) IC50); format: cell-based, human; settings: Homo sapiens, read-out: THP1(cGAMP) IC50
Description: as §1
For the counter assay, cells were stimulated by cGAMP (SigmaAldrich #SML1232) to activate the identical pathway independent and directly downstream of cGAS (measurement of THP1(cGAMP) IC50).
as §2, §3, §4, §5, §6, §7, §8, §9

[7] = target: T1, cGAS; settings: groups as on page 44/45 of WO 2020/142729; read-out: biochemical (in vitro) IC50-value, group; cited from earlier work
[8] = target: T1, cGAS; settings: page 65, Table 2 of WO 2022/174012; read-out: enzymatic IC50-value, group; cited from earlier work
[9] = tested on: THP-1; settings: page 67 and 68, Table 3 of WO 2022/174012; read-out: cellular IC50-value (IFNβ ELISA stimulated with THP-1), group; cited from earlier work
[10] = THP-1, Table 2, compounds of WO 2020/142729, read-out: THP1(vir) IC50
[11] = THP-1, Table 2, compounds of WO 2020/142729

Structure (SMILES) | IC50 [1] | IC50 [2] | IC50 [3] | other results
C[C@@H]1N(c2cc(Br)cnc2OC2C[C@@H](C(=O)O)N(c3nc(C(F)(F)F)nc4c3oc3ccccc34)C2)CCOC12COC2 (some centres unmarked) [Ex. 1.10 of PCT/EP2022/062 480] | 0.091 µM | 16.1 µM | 0.033 µM | IC50 [4]: 0.005 µM
COC(=O)[C@@H]1C[C@H](Oc2ncc(Cl)cc2[C@@]2(F)CCS(=O)(=O)C[C@@H]2C)CN1c1nc(C(F)F)nc2c1oc1ccccc12 [P02 of PCT/ EP2022/062496] | 0.029 µM | > 16.6 µM | 0.14 µM | IC50 [4]: > 9.95 µM
CC(C)(C(=O)N[C@H]1C[C@@H](C(=O)O)N(c2nc(C(F)(F)F)nc3c2oc2ccccc23)C1)c1cn[nH]c1 [Example 58, reference compound] | – | – | – | IC50 [5, 10]: 21 µM
C#Cc1cnc(O[C@H]2C[C@@H](C(=O)O)N(c3nc(C(F)(F)F)nc4c3oc3ccccc34)C2)c(N2CCOC3(COC3)[C@@H]2C)c1 [Ex. 1.12 of PCT/EP2022/062 480] | 0.007 µM | 11.9 µM | 0.015 µM | –
Cc1nc(N2C[C@@H](Cc3nn[nH]n3)C[C@H]2C(=O)O)c2oc3ccccc3c2n1 [Example 25, reference compound] | – | – | – | IC50 [5, 10]: > 17 µM; IC50 ([5]; THP-1, running text, read-out: THP1(vir) IC50): 17 µM; IC50 [6, 11]: > 17 µM; IC50 [7]: < 0.1 µM
COc1ncccc1-c1cnc(O[C@H]2C[C@@H](C(=O)O)N(c3nc(C(F)(F)F)nc4c3oc3ccccc34)C2)c(N2CCOC3(COC3)[C@@H]2C)c1 [Ex. 3.14 of PCT/EP2022/062 480] | 0.01 µM | 7.83 µM | 0.026 µM | –
C#Cc1cnc(O[C@H]2C[C@@H](C(=O)O)N(c3nc(C(F)(F)F)nc4c3oc3ccccc34)C2)c([C@@]2(F)CCS(=O)(=O)C[C@@H]2C)c1 [Ex. 2.12 of PCT/ EP2022/062496] | – | 21.8 µM | 0.008 µM | –
C[C@H]1CS(=O)(=O)CC[C@]1(F)c1cc(Cl)cnc1O[C@H]1C[C@@H](C(=O)O)N(c2nc(C(F)F)nc3c2oc2ccccc23)C1 [Ex. 1.13 of PCT/ EP2022/062496] | – | 22.5 µM | 0.006 µM | –
C[C@@H]1N(c2cccnc2O[C@H]2C[C@@H](C(=O)O)N(c3nc(C(F)F)nc4c3oc3ccccc34)C2)CCOC12COC2 [Ex. 4.04 of PCT/EP2022/062 480] | 0.386 µM | > 16.6 µM | 0.077 µM | –
COC(=O)[C@@H]1C[C@H](Oc2ncc(Br)cc2N2CCOC3(COC3)[C@@H]2C)CN1c1nc(C(F)(F)F)nc2c1oc1ccccc12 [P02 of PCT/EP2022/062 480] | 0.444 µM | 17.1 µM | 5.33 µM | IC50 [4]: > 9.95 µM
Cc1nc(N2C[C@@H](Nc3ccncc3)C[C@H]2C(=O)O)c2oc3ccccc3c2n1 [Example 38, reference compound] | – | – | – | IC50 [5, 10]: > 17 µM; IC50 [6, 11]: > 17 µM
COC(=O)[C@@H]1C[C@H](Oc2ncccc2N2CCOC3(COC3)[C@@H]2C)CN1c1nc(C(F)F)nc2c1oc1ccccc12 [P01 of PCT/EP2022/062 480] | 0.358 µM | 26.1 µM | 1.31 µM | IC50 [4]: > 9.96 µM
C#Cc1cnc(O[C@H]2C[C@@H](C(=O)OC)N(c3nc(C(F)(F)F)nc4c3oc3ccccc34)C2)c(N2CCOC3(COC3)[C@@H]2C)c1 [P03 of PCT/EP2022/062 480] | 0.188 µM | 22.8 µM | 1.09 µM | –
Cc1nc(N2CCC[C@H]2C(=O)O)c2oc3ccccc3c2n1 [Example 15, reference compound] | – | – | – | IC50 [5, 10]: > 17 µM; IC50 [6, 11]: > 17 µM
COC(=O)[C@@H]1C[C@H](Oc2ncc(Cl)cc2[C@@]2(OC)CC(C)(C)S(=O)(=O)C[C@@H]2C)CN1c1nc(C(F)F)nc2c1oc1ccccc12 [P03 of PCT/ EP2022/062496] | 0.202 µM | 20.6 µM | 1.99 µM | –
Cc1nc(N2C[C@@H](CC(=O)Nc3ccncc3)C[C@H]2C(=O)O)c2oc3ccccc3c2n1 [Example 28, reference compound] | – | – | – | IC50 [5, 10]: > 32 µM
Cc1nc(N2C[C@@H](CC(=O)Nc3ccc(-c4ccccc4)cc3)C[C@H]2C(=O)O)c2oc3ccccc3c2n1 [Compound 5, reference compound] | – | – | – | IC50 ([5]; THP-1, Table 3, Compound No. 5 of WO 2022/174012, read-out: THP1(vir) IC50): > 10 µM; IC50 ([6]; THP-1, Table 3, Compound No. 5 of WO 2022/174012): > 10 µM; IC50 [8]: 0.05 to 0.1 µM; IC50 [9]: < 1 µM
CO[C@]1(c2cc(Cl)cnc2O[C@H]2C[C@@H](C(=O)O)N(c3nc(C(F)F)nc4c3oc3ccccc34)C2)CC(C)(C)S(=O)(=O)C[C@@H]1C [Ex. 1.05 of PCT/ EP2022/062496] | 0.044 µM | 13.2 µM | 0.135 µM | –
COC(=O)[C@@H]1C[C@H](Oc2ncc(-c3cccnc3OC)cc2N2CCOC3(COC3)[C@@H]2C)CN1c1nc(C(F)(F)F)nc2c1oc1ccccc12 [P04 of PCT/EP2022/062 480] | 0.067 µM | > 16.6 µM | 2.75 µM | IC50 [4]: > 9.95 µM
C#Cc1cnc(O[C@H]2C[C@@H](C(=O)OC)N(c3nc(C(F)(F)F)nc4c3oc3ccccc34)C2)c([C@@]2(F)CCS(=O)(=O)C[C@@H]2C)c1 [P01 of PCT/EP2022/062 496] | 0.011 µM | > 16.6 µM | 0.067 µM | –
